# Literature values in US9078910B2, “Compositions comprising spicamycin derivatives and methods of use thereof” (DARA BioSciences, Inc., priority 2012, dated 2015).
# Test system: neuropathic pain
# Conditions: Abdi et al. 2000, Kobierski et al. 2003
smiles,measurement,value
"CCCCCCCCC/C=C/C=C/C(=O)NCC(=O)N[C@@H]1[C@@H](O)[C@@H](O)[C@@H](Nc2ncnc3[nH]cnc23)O[C@H]1[C@@H](O)CO [KRN5500, 6-[4-deoxy-4-[(2E,4E)-tetradecadienoylglycyl]amino-L-glycero-β-L-mannoheptopyranosyl]amino-9H-purine]",Efficacy in rat models of neuropathic pain,effective
